Source: patent publication US4853467A, “Nitrogen containing derivatives of epipodophyllotoxin glucosides” (Bristol-Myers Company, priority 1987, dated 1989)
In brackets after ≈: the same amount, converted by molar mass.

Legend:
[1] = tested on: P388 murine leukemia; experiment: P388 Leukemia, antitumor activity against murine P388 leukemia; type: in vivo, murine (female CDF1 mice); settings: i.p. on days 5 and 8; 10^6 P388 cells i.p.; maximum effect over doses; >=125 considered significant; etoposide values in parentheses are positive control in same experiment
Experimental: Female CDF1 mice were implanted intraperitoneally with a tumor inoculum of 10^6 ascites cells of P388 murine leukemia and treated with various doses of a test compound; four mice were used for each dose level and ten were used as saline-treated control. The compounds were administered by intraperitoneal injection on days 5 and 8 (day 1 being the day of tumor implantation). Antitumor activity was expressed as % T/C which is the ratio of the median survival time (MST) of drug-treated group to the MST of saline-treated control group. A compound showing a % T/C value of 125 or greater is generally considered to have significant antitumor activity in the P388 test. The experiment lasted 31 days at the end of which time the number of survivors was noted. Table I presents the results of the above-described evaluation; only the maximum % T/C and the dose showing the maximum effect are reported.

[2] = tested on: B16-F10 murine melanoma; experiment: In vitro cytotoxicity assay, B16-F10 murine melanoma; type: cell-based; settings: two values per compound, four-fold serial dilution; for In vitro cytotoxicity IC50, B-16-F10: B16-F10 murine melanoma; for IC50: Mus musculus, B16-F10, B16-F10 murine melanoma, read-out: In vitro cytotoxicity IC50, B-16-F10
Experimental: (§1) The in vitro cytotoxicity assay involved growing various mammalian tumor cells, including human tumor cells, on microtitre plates employing established tissue culture methods. The concentration of each compound required to inhibit cell growth by 50% (IC50) was then determined by a four-fold serial dilution technique. The validity of the method has been supported by a report published in the "Proceedings of the American Association for Cancer Research", 1984, 25:1891 (Abst. No. 328). Tumor cells of the following types were employed for each compound tested: B16-F10 murine melanoma; Moser human colon; SW900 human lung and three human colon tumor cell lines namely HCT-116, HCT-VM, and HCT-VP, the latter two being resistant to teniposide (VM) and etoposide (VP), respectively. IC50 values less than 500 μg/ml are a positive indicator of antitumor activity. Table II presents IC50 values of various compounds of the present invention against the aforementioned cell lines.

[3] = tested on: HCT-116; experiment: In vitro cytotoxicity assay, HCT-116 human colon tumor; type: cell-based; settings: two values per compound, four-fold serial dilution; for In vitro cytotoxicity IC50, HCT-116: HCT-116 human colon; for IC50: Homo sapiens, HCT-116, HCT-116 human colon
Experimental: as §1

[4] = tested on: HCT/VM34; experiment: In vitro cytotoxicity assay, HCT/VM34 teniposide-resistant human colon tumor; type: cell-based; settings: HCT/VM34, resistant to teniposide, two values per compound, four-fold serial dilution; for IC50: Homo sapiens
Experimental: as §1

[5] = tested on: HCT/VP35; experiment: In vitro cytotoxicity assay, HCT/VP35 etoposide-resistant human colon tumor; type: cell-based; settings: two values per compound, four-fold serial dilution; for In vitro cytotoxicity IC50, HCT/VP35: HCT/VP35, resistant to etoposide; for IC50: Homo sapiens, HCT/VP35, HCT/VP35, resistant to etoposide
Experimental: as §1

[6] = tested on: Moser human colon; experiment: In vitro cytotoxicity assay, Moser human colon; type: cell-based; settings: two values per compound, four-fold serial dilution; for IC50: Homo sapiens
Experimental: as §1

[7] = tested on: SW900 human lung; experiment: In vitro cytotoxicity assay, SW900 human lung; type: cell-based; settings: two values per compound, four-fold serial dilution; for IC50: Homo sapiens, SW900, SW900 human lung; for In vitro cytotoxicity IC50, SW900: SW900 human lung
Experimental: as §1

Row | Compound | Max % T/C (ratio of median survival time of drug-treated group to saline-treated control group) [1] | In vitro cytotoxicity IC50, B-16-F10 [2] | IC50 [2] | In vitro cytotoxicity IC50, HCT-116 [3] | IC50 [3] | In vitro cytotoxicity IC50, HCT/VM34 [4] | IC50 [4] | In vitro cytotoxicity IC50, HCT/VP35 [5] | IC50 [5] | IC50 [6] | In vitro cytotoxicity IC50, MOSER [6] | IC50 [7] | In vitro cytotoxicity IC50, SW900 [7]
1 | CNc1cc([C@@H]2c3cc4c(cc3[C@@H](O[C@@H]3O[C@@H]5CO[C@@H](C)O[C@H]5[C@H](O)[C@H]3O)[C@H]3COC(=O)[C@H]23)OCO4)cc(OC)c1O [Example 4, 3'-Desmethoxy-3'-methylamine etoposide] | 170% | 17.9 µg/mL | 13.9 µg/mL (≈ 23.7 µM) | 15.7 µg/mL | 16.2 µg/mL (≈ 27.6 µM) | 33 µg/mL | 23 µg/mL (≈ 39.1 µM) | 47 µg/mL | 40 µg/mL (≈ 68.1 µM) | 56 µg/mL (≈ 95.3 µM) | 49 µg/mL | 63 µg/mL (≈ 107 µM) | –
2 | COc1cc([C@@H]2c3cc4c(cc3[C@@H](O[C@@H]3O[C@@H]5CO[C@@H](C)O[C@H]5[C@H](O)[C@H]3O)[C@H]3COC(=O)[C@H]23)OCO4)cc(NC(=O)NCc2ccccc2)c1O [Example 11, 3'-Desmethoxy-3'-([[phenylmethyl)amino]carbonyl]amino etoposide] | 110% | 40 µg/mL | 44 µg/mL (≈ 62.3 µM) | 98 µg/mL | 58 µg/mL (≈ 82.1 µM) | 26 µg/mL | 24 µg/mL (≈ 34 µM) | 31 µg/mL | 30 µg/mL (≈ 42.5 µM) | 89 µg/mL (≈ 126 µM) | 93 µg/mL | 74 µg/mL (≈ 105 µM) | 84 µg/mL
3 | COc1cc([C@@H]2c3cc4c(cc3[C@@H](O[C@@H]3O[C@@H]5CO[C@@H](C)O[C@H]5[C@H](O)[C@H]3O)[C@H]3COC(=O)[C@H]23)OCO4)cc(NCN2C(=O)CCC2=O)c1O [Example 13, 3'-Desmethoxy-3'-[(N-succinimido)methyl]amino etoposide] | 230% | 8.7 µg/mL | 5.5 µg/mL (≈ 8.03 µM) | 4.1 µg/mL | 3.6 µg/mL (≈ 5.26 µM) | 3.9 µg/mL | 2.7 µg/mL (≈ 3.94 µM) | 3.3 µg/mL | 3.4 µg/mL (≈ 4.97 µM) | 12.3 µg/mL (≈ 18 µM) | 12.1 µg/mL | 11 µg/mL (≈ 16.1 µM) | 8.6 µg/mL
4 | COc1cc([C@@H]2c3cc4c(cc3[C@@H](O[C@@H]3O[C@@H]5CO[C@@H](C)O[C@H]5[C@H](O)[C@H]3O)[C@H]3COC(=O)[C@H]23)OCO4)cc(N=Cc2ccsc2)c1O [Example 17, 3'-Desmethyoxy-3'-[(3-thienyl)methylene]amino etoposide] | 195% | 8.4 µg/mL | 6.7 µg/mL (≈ 10 µM) | 10.1 µg/mL | 12.3 µg/mL (≈ 18.4 µM) | 24 µg/mL | 23 µg/mL (≈ 34.4 µM) | 44 µg/mL | 31 µg/mL (≈ 46.4 µM) | 45 µg/mL (≈ 67.4 µM) | – | 22 µg/mL (≈ 32.9 µM) | 44 µg/mL
5 | COc1cc([C@@H]2c3cc4c(cc3[C@@H](O[C@@H]3O[C@@H]5CO[C@@H](C)O[C@H]5[C@H](O)[C@H]3O)[C@H]3COC(=O)[C@H]23)OCO4)cc(N=Cc2ccco2)c1O [Example 18, 3'-Desmethoxy-3'-[(2-furyl)methylene]amino etoposide] | 200% | 15.3 µg/mL | 12.5 µg/mL (≈ 19.2 µM) | 18.4 µg/mL | 29 µg/mL (≈ 44.5 µM) | – | – | – | – | 40 µg/mL (≈ 61.4 µM) | 37 µg/mL | 42 µg/mL (≈ 64.5 µM) | 40 µg/mL
6 | COc1cc([C@@H]2c3cc4c(cc3[C@@H](O[C@@H]3O[C@@H]5CO[C@@H](C)O[C@H]5[C@H](O)[C@H]3O)[C@H]3COC(=O)[C@H]23)OCO4)cc(N=Cc2ccncc2)c1O [Example 19, 3'-Desmethoxy-3'-[(4-pyridyl)methylene]amino etoposide] | 230% | 16.4 µg/mL | 16.9 µg/mL (≈ 25.5 µM) | 12.7 µg/mL | 13.9 µg/mL (≈ 21 µM) | 19.3 µg/mL | 21 µg/mL (≈ 31.7 µM) | – | – | 38 µg/mL (≈ 57.3 µM) | 32 µg/mL | 42 µg/mL (≈ 63.4 µM) | 28 µg/mL
7 | COc1cc([C@@H]2c3cc4c(cc3[C@@H](O[C@@H]3O[C@@H]5CO[C@@H](C)O[C@H]5[C@H](O)[C@H]3O)[C@H]3COC(=O)[C@H]23)OCO4)cc(N=Cc2cccc([N+](=O)[O-])c2)c1O [Example 22, 3'-Desmethoxy-3'-[[(3-nitro)phenyl]methylene]amino etoposide] | 235% | 14.1 µg/mL | 10.9 µg/mL (≈ 15.4 µM) | 13.3 µg/mL | 17 µg/mL (≈ 24.1 µM) | 16.2 µg/mL | 21 µg/mL (≈ 29.7 µM) | 43 µg/mL | 36 µg/mL (≈ 50.9 µM) | > 250 µg/mL | – | > 250 µg/mL | –
8 | COc1cc([C@@H]2c3cc4c(cc3[C@@H](O[C@@H]3O[C@@H]5CO[C@@H](C)O[C@H]5[C@H](O)[C@H]3O)[C@H]3COC(=O)[C@H]23)OCO4)cc([N+](=O)[O-])c1O [Example 24, 3'-Desmethoxy-3'-nitro etoposide] | > 140% | 50 µg/mL | 41 µg/mL (≈ 67.9 µM) | 53 µg/mL | 43 µg/mL (≈ 71.2 µM) | 82 µg/mL | 56 µg/mL (≈ 92.8 µM) | – | – | 92 µg/mL (≈ 152 µM) | 84 µg/mL | 66 µg/mL (≈ 109 µM) | 90 µg/mL
